Source: publication PMC6491884, “Synthesis and Biological Evaluation of 4β-N-Acetylamino Substituted Podophyllotoxin Derivatives as Novel Anticancer Agents” (Frontiers in Chemistry, 2019)
Where two headings read alike, the source gives them in different places.

What was measured:
[1] = test system: EC9706 (human esophageal squamous cell carcinoma); test: MTT growth inhibition assay, EC9706; assay type: cell-based
Protocol: (§1) Target compounds 12a–t were evaluated for in vitro cytotoxicity against four human tumor cell lines, including H460 (non-small cell lung carcinoma), HeLA (human cervical carcinoma), EC9706 (human esophageal squamous cell carcinoma), and T24 (human bladder carcinoma), using HaCaT (human immortalized epidermal cells) as a human non-malignant cell line. Etoposide (3) was included as a positive control. The screening procedure was based on the 3-(4, 5-dimethylthiazol-2-yl)-2, 5-diphenyltetrazoliun bromide (MTT) growth inhibition assay with triplicate experiments, and the results are summarized in Table 1.
(§2) The four human cancer cell lines and a normal human epidermal cell line of the screening panel, including H460 (human non-small cell lung carcinoma), HeLA (human cervical carcinoma), EC9706 (human esophageal squamous cell carcinoma), T24 (human bladder carcinoma), and HaCaT (human immortalized epidermal cells), were purchased from American Type Culture Collection (ATCC, Manassas, VA, U.S.A.). H460, EC9706, and T24 were maintained in RPMI 1640 medium containing 10% Fetal Bovine Serum, 100 units/ml penicillin, 100 μg/ml streptomycin under humidified incubator with 5% CO2 atmosphere at 37°C. HeLA and HaCaT were maintained in Dulbecco′s […] (DMEM) supplemented with 10% Fetal Bovine Serum 100 units/ml penicillin, 100 μg/ml streptomycin in a humidified incubator and 5% CO2 atmosphere at 37°C. Logarithmically growing cells were used for the following experiments.
(§3) The cytotoxicity of the synthesized compounds 12a–t against a panel of human cell lines was determined by the 3-(4,5-dimethylthiazol-2-yl)-2,5-diphenyltetrazoliun bromide (MTT) growth inhibition assay. The five human cell lines were, respectively, plated in 96-well-culture plates at the density of 1 × 10^5 cells per well and incubated for 24 h. Cells were exposed to different concentrations of synthetic podophyllotoxin derivatives for 48 h. MTT was added with a dose of 5 mg/mL in phosphate-buffered saline. After incubation for 4 h at 37°C, the purple formazan crystals were dissolved with […] dimethyl sulfoxide and the absorbance was measured at 570 nm in an ELISA reader. Antiproliferative activity was expressed using the IC50 value defined as the concentration of synthetic podophyllotoxin derivatives inhibiting cell proliferation by 50%. The cell viability ratio was calculated by the following formula: cell viability ratio (%) = OD treated /OD control × 100% (Ma et al., [2014]).

[2] = test system: HeLA (human cervical carcinoma); test: MTT growth inhibition assay, HeLA; assay type: cell-based; conditions: 48 h
Protocol: as §1, §2, §3

[3] = test system: T24 (human bladder carcinoma); test: MTT growth inhibition assay, T24; assay type: cell-based; conditions: T24, 48 h
Protocol: as §1, §2, §3

[4] = test system: H460 (human non-small cell lung carcinoma); test: MTT growth inhibition assay, H460; assay type: cell-based
Protocol: as §1, §2, §3

[5] = test system: HaCaT (human immortalized epidermal cells); test: MTT growth inhibition assay, HaCaT normal cells; assay type: cell-based; conditions: 48 h
Protocol: as §1, §2, §3

[6] = test system: four human cancer cell lines (EC-9706, HeLA, T-24 and H460) and a normal human epidermal cell line (HaCaT); test: MTT growth inhibition assay, whole cell line panel; assay type: cell-based; conditions: MTT, span over the cell line panel, read-out: IC50 values across the cell lines
Protocol: as §1, with “1. […]” for “1.”
The cytotoxicity of the synthesized compounds 12a–t against a panel of human cell lines was determined by the 3-(4,5-dimethylthiazol-2-yl)-2,5-diphenyltetrazoliun bromide (MTT) growth inhibition assay. […] After incubation for 4 h at 37°C, the purple formazan crystals were dissolved with […] dimethyl sulfoxide and the absorbance was measured at 570 nm in an ELISA reader. […] The cell viability ratio was calculated by the following formula: cell viability ratio (%) = OD treated /OD control × 100% (Ma et al., [2014]).

[7] = EC9706, 48 h, read-out: IC50 (μM) EC9706
[8] = Homo sapiens, read-out: IC50 (μM) HeLA, MTT, 48 h, n = 3
[9] = read-out: IC50 (μM) T24, MTT, 48 h, n = 3
[10] = NCI-H460, 48 h, read-out: IC50 (μM) H460
[11] = read-out: IC50 (μM) HaCaT, MTT, 48 h, n = 3, normal cell line

| Compound | IC50 [1, 7] | IC50 [2, 8] | IC50 [3, 9] | IC50 [4, 10] | IC50 [5, 11] | melting point | IC50 ([2]; read-out: IC50 (μM) HeLA, MTT, n = 3) | IC50 ([1]; EC9706, MTT, 48 h, n = 3, read-out: IC50 (μM) EC9706) | IC50 ([2]; Homo sapiens, MTT, n = 3, read-out: IC50 (μM) HeLA) | IC50 ([3]; MTT, 48 h, n = 3, read-out: IC50 (μM) T24) | IC50 ([4]; NCI-H460, MTT, 48 h, n = 3, read-out: IC50 (μM) H460) | IC50 ([5]; MTT, n = 3, normal cell line, read-out: IC50 (μM) HaCaT) | IC50 [6] |
| --- | --- | --- | --- | --- | --- | --- | --- | --- | --- | --- | --- | --- | --- |
| COc1cc([C@@H]2c3cc4c(cc3[C@@H](NC(=O)CN3CCCC3)[C@H]3COC(=O)[C@H]23)OCO4)cc(OC)c1O [Compound 12a] | > 50 µM | 12.7 ± 1.38 µM | > 50 µM | 9.61 ± 0.22 µM | 18.2 ± 1.28 µM | 113 to 116 °C | – | – | – | – | – | – | – |
| COc1cc([C@@H]2c3cc4c(cc3[C@@H](NC(=O)CN3CCCCC3)[C@H]3COC(=O)[C@H]23)OCO4)cc(OC)c1O [Compound 12b] | > 50 µM | 5.72 ± 0.74 µM | > 50 µM | 5.91 ± 0.65 µM | 5.17 ± 0.36 µM | 107 to 110 °C | – | – | – | – | – | – | – |
| COc1cc([C@@H]2c3cc4c(cc3[C@@H](NC(=O)CN3CCCCC3)[C@H]3COC(=O)[C@H]23)OCO4)cc(OC)c1OC [Compound 12c] | > 50 µM | > 50 µM | > 50 µM | > 50 µM | 1.89 ± 0.27 µM | 229 to 231 °C | – | – | – | – | – | – | – |
| COc1cc([C@@H]2c3cc4c(cc3[C@@H](NC(=O)CN3CCOCC3)[C@H]3COC(=O)[C@H]23)OCO4)cc(OC)c1O [Compound 12d, 4β-N-[2′′-(morpholino)-acetamide]-4′-demethylpodophyllotoxin] | > 50 µM | > 50 µM | > 50 µM | > 50 µM | > 50 µM | 109 to 111 °C | – | – | – | – | – | – | – |
| COc1cc([C@@H]2c3cc4c(cc3[C@@H](NC(=O)CN3CCOCC3)[C@H]3COC(=O)[C@H]23)OCO4)cc(OC)c1OC [Compound 12e, 4β-N-[(2′′-morpholino)-acetamide]-podophyllotoxin] | > 50 µM | > 50 µM | > 50 µM | > 50 µM | > 50 µM | 119 to 121 °C | – | – | – | – | – | – | – |
| CCCNCC(=O)N[C@@H]1c2cc3c(cc2[C@@H](c2cc(OC)c(O)c(OC)c2)[C@H]2C(=O)OC[C@@H]21)OCO3 [Compound 12f] | 11.7 ± 0.26 µM | 23.9 ± 1.04 µM | 18.6 ± 1.57 µM | 2.54 ± 0.34 µM | 2.59 ± 0.13 µM | 199 to 202 °C | – | – | – | – | – | – | – |
| CCCCNCC(=O)N[C@@H]1c2cc3c(cc2[C@@H](c2cc(OC)c(OC)c(OC)c2)[C@H]2C(=O)OC[C@@H]21)OCO3 [Compound 12i] | > 50 µM | > 50 µM | > 50 µM | 37.8 ± 1.01 µM | > 50 µM | 92 to 95 °C | – | – | – | – | – | – | – |
| CCN(CC)CC(=O)N[C@@H]1c2cc3c(cc2[C@@H](c2cc(OC)c(O)c(OC)c2)[C@H]2C(=O)OC[C@@H]21)OCO3 [Compound 12k] | > 50 µM | 45.8 ± 0.71 µM | > 50 µM | > 50 µM | > 50 µM | 106 to 108 °C | – | – | – | – | – | – | – |
| COc1cc([C@@H]2c3cc4c(cc3[C@@H](NC(=O)CN(CCO)CCO)[C@H]3COC(=O)[C@H]23)OCO4)cc(OC)c1O [Compound 12l] | > 50 µM | > 50 µM | > 50 µM | > 50 µM | 4.21 ± 0.17 µM | 212 to 214 °C | – | – | – | – | – | – | – |
| COc1cc([C@@H]2c3cc4c(cc3[C@@H](NC(=O)CN(CCO)CCO)[C@H]3COC(=O)[C@H]23)OCO4)cc(OC)c1OC [Compound 12m] | > 50 µM | 36.4 ± 0.49 µM | > 50 µM | > 50 µM | > 50 µM | 105 to 107 °C | – | – | – | – | – | – | – |
| COc1cc([C@@H]2c3cc4c(cc3[C@@H](NC(=O)CNCc3ccccc3)[C@H]3COC(=O)[C@H]23)OCO4)cc(OC)c1O [Compound 12n] | 40.1 ± 2.43 µM | 6.26 µM | > 50 µM | 16.5 ± 0.39 µM | 13.3 ± 0.8 µM | 141 to 143 °C | 6.25 ± 0.21 µM | – | – | – | – | – | – |
| COc1cc([C@@H]2c3cc4c(cc3[C@@H](NC(=O)CNCc3ccccc3)[C@H]3COC(=O)[C@H]23)OCO4)cc(OC)c1OC [Compound 12o] | 11.3 ± 0.22 µM | 8.55 ± 0.28 µM | > 50 µM | 26.9 ± 0.92 µM | 2.14 ± 0.33 µM | 111 to 113 °C | – | – | – | – | – | – | – |
| COc1cc([C@@H]2c3cc4c(cc3[C@@H](NC(=O)CNc3ccc(F)cc3)[C@H]3COC(=O)[C@H]23)OCO4)cc(OC)c1O [Compound 12p] | > 50 µM | > 50 µM | > 50 µM | 9.75 ± 0.26 µM | > 50 µM | 159 to 162 °C | – | – | – | – | – | – | – |
| COc1ccc(CCNCC(=O)N[C@@H]2c3cc4c(cc3[C@@H](c3cc(OC)c(O)c(OC)c3)[C@H]3C(=O)OC[C@@H]32)OCO4)cc1OC [Compound 12q] | 20.7 ± 0.72 µM | 4.57 ± 0.3 µM | > 50 µM | 3.43 ± 0.17 µM | 3.69 ± 0.19 µM | 229 to 231 °C | – | – | – | – | – | – | – |
| COc1ccc(CCNCC(=O)N[C@@H]2c3cc4c(cc3[C@@H](c3cc(OC)c(OC)c(OC)c3)[C@H]3C(=O)OC[C@@H]32)OCO4)cc1OC [Compound 12r] | > 50 µM | > 50 µM | > 50 µM | > 50 µM | > 50 µM | 106 to 108 °C | – | – | – | – | – | – | – |
| COc1cc([C@@H]2c3cc4c(cc3[C@@H](NC(=O)CNCCc3ccc(O)cc3)[C@H]3COC(=O)[C@H]23)OCO4)cc(OC)c1O [Compound 12s] | 14.3 ± 0.69 µM | 2.27 ± 0.26 µM | 12.7 ± 0.73 µM | 5.94 ± 0.18 µM | 8.67 ± 0.72 µM | 234 to 236 °C | – | – | – | – | – | – | – |
| COc1cc([C@@H]2c3cc4c(cc3[C@@H](NC(=O)CNCCc3ccc(O)cc3)[C@H]3COC(=O)[C@H]23)OCO4)cc(OC)c1OC [Compound 12t] | > 50 µM | > 50 µM | > 50 µM | 42.1 ± 1.21 µM | > 50 µM | 116 to 119 °C | – | – | – | – | – | – | – |
| COc1cc([C@@H]2c3cc4c(cc3[C@@H](O[C@@H]3O[C@@H]5CO[C@@H](C)O[C@H]5[C@H](O)[C@H]3O)[C@H]3COC(=O)[C@H]23)OCO4)cc(OC)c1O [Etoposide, etoposide, reference compound] | – | – | – | – | – | – | – | > 50 µM | 3.12 ± 0.35 µM | 8.43 ± 0.33 µM | 43.2 ± 1.45 µM | 48.7 ± 1.69 µM | 8.4 to 78.2 µM |
